From ChEMBL document CHEMBL1156746, “New small molecule inhibitors of hepatitis C virus” (Bioorg Med Chem Lett, 2009)

Legend:
[1] = system: Hepatitis C virus; assay: Antiviral activity against HCV2a J6/JFH1 infected in Huh7-5 cells assessed as inhibition of core protein dimerization by RT PCR; assay type: functional, organism-based, Hepacivirus hominis, subtype 2a J6/JFH1
[2] = Cytotoxicity against human Huh7.5 cells; assay type: cell-based, Huh-7
[3] = system: Hepatitis C virus; assay: Antiviral activity against HCV2a J6/JFH1 infected in Huh7-5 cells at early T1 stage assessed as inhibition of core protein dimerization by RT PCR; assay type: functional, organism-based, Hepacivirus hominis; conditions: subtype 2a J6/JFH1, Huh7.5
[4] = system: Hepatitis C virus; assay: Antiviral activity against HCV2a J6/JFH1 infected in Huh7-5 cells at late T2 stage assessed as inhibition of core protein dimerization by RT PCR; assay type: functional, organism-based, Hepacivirus hominis; conditions: subtype 2a J6/JFH1, Huh7.5
[5] = Hepatitis C virus, subtype 2a J6/JFH1, Huh7.5, read-out: IC50

Row | SMILES | IC50 [1, 5] [µM] | CC50 ([2]; Huh7.5 cells) [µM] | EC50 [3] [µM] | EC50 [4] [µM] | IC50 ([1]; huh7-5) | CC50 ([2]; huh-7) [µM]
1 | C=CCN1c2ccc(OC)cc2[C@]23CCC(=O)N(Cc4cc(OC)c(OC)c(OC)c4)C2=NC(C(=O)OC)=C(C(=O)OC)C13 (mixture of isomers) | 2 | 5.3 | 3.8 | 3 |  | 
2 | CC#CCN1c2ccc(OC)cc2[C@]23CCC(=O)N(CCOC)C2=NC(C(=O)OC)=C(C(=O)OC)C13 (mixture of isomers) | 2 | > 320 | 4.9 | 0.7 |  | 
3 | COc1ccc2c(O[C@@H]3C[C@H]4C(=O)N[C@]5(C(=O)O)C[C@H]5/C=C\CCCCC[C@H](NC(=O)OC5CCCC5)C(=O)N4C3)cc(-c3csc(NC(C)C)n3)nc2c1 [CILUPREVIR] |  |  | 0.072 | 0.071 | Not Active | 5.3
4 | COC(=O)C1=C(C(=O)OC)C2N(C)c3ccc(OC)cc3[C@@]23C[C@@H](C(=O)OC)N(C(=O)CC(C)C)C3=N1 (mixture of isomers) | 9.3 | > 320 | 14.8 | 22.2 |  | 
5 | C=CCN1c2ccc(OC)cc2[C@]23CCC(=O)N(Cc4ccccc4)C2=NC(C(=O)OC)=C(C(=O)OC)C13 (mixture of isomers) | 1.4 | 127 | 2.3 | 3.2 |  | 
